Measured values reported in patent US20260216238A1, “TETRATHIOMOLYBDIC ACID FOR USE IN TREATING COPPER METABOLISM-ASSOCIATED DISEASES OR DISORDERS (WILSON DISEASE)” (Alexion Pharmaceuticals, Inc., priority 2023, published 2026).

Tested on: patients with Wilson disease (WD)
Experiment: UWDRS Part III total score, functional subscale and individual items (neurological examination)
Format: in vivo, human
Conditions: for UWDRS Part III (0-175) change from baseline, Mean (SD) / UWDRS Part III Functional Subscale (0-10) change from baseline, Mean (SD): pooled Studies 301 and 201
Protocol: The UWDRS scoring system was developed specifically for the motor and movement disorders associated with chronic copper neurotoxicity in WD. Some individual items/subscales of the UWDRS Part III (arising from a chair, gait, handwriting, and speech) in addition to the UWDRS Parts I, II, and III overall, were assessed to further define the range of burdensome signs and symptoms of WD, so as to further understand the assessment of treatment effects on patients with WD. The UWDRS scores for consciousness (Part I) and abnormal neurologic examination findings (Part III) will be determined by a trained neurologist rater who is blinded to study treatment randomization. These scores were used to provide a rigorous dataset for evaluating changes from baseline.
Unified Wilson Disease Rating Scale (Parts I, II, and III): The UWDRS is a clinical rating scale designed to evaluate the neurological manifestations of WD that generally can be divided into 3 movement disorder syndromes: dystonic, ataxic, and Parkinsonian syndrome. The UWDRS comprises 3 parts: UWDRS Part I (level of consciousness, item 1), UWDRS Part II (a patient-reported review of daily activity items [disability], items 2 to 11), and UWDRS Part III (a detailed neurological examination, items 12 to 34).
The UWDRS Part I and Part III were assessed by a neurologist who is blinded to the treatment randomization, while UWDRS Part II may be reported to a non-blinded member of the study team by the patient, family member, or caregiver. The UWDRS has not been formally evaluated in adolescents. However, the components of Part I (level of consciousness), Part II (patient or caregiver-reported disability) and Part III (neurologic examination findings) were not fundamentally different between adults and adolescents. Patients aged 12 years and older were expected to be able to comply with UWDRS assessments.
Pooled results from all such participants will be integrated together into one timeline to allow analyses of changes in UWDRS, long-term copper control, and long-term safety laboratory data.
Endpoints (directly measured non-ceruloplasmin-bound copper [dNCC], UWDRS III (rater blinded) total and individual item scores, Clinical Global Impression-Improvement [CGI-I]) were evaluated at baseline (BL) and Week 48 (W48). Normalization (score decrease to 0), improvement (≥1 point decrease), stability (no change), or worsening (≥1 point increase) of total and individual UWDRS III item scores were evaluated at W48.

[1] = Subpopulation E (incomplete or intolerant responders), Week 48, MMRM
[2] = Subpopulation E (incomplete or intolerant responders), Week 48, TTM N=79, SoC N=38

In the case of bis-choline tetrathiomolybdate [TTM], the “UWDRS Part III score change (mean)” value (0-48W, symptomatic patients) is reported as −2.91, the “UWDRS symptom: Arising from chair” value (BL) is reported as 85 and the “UWDRS symptom: Arm and hand Dystonia” value (BL) is reported as 64. For the same substance, the “UWDRS symptom: Cervical Dystonia” value (BL) was 74, the “UWDRS symptom: Chorea” value (BL) was 90 and the “UWDRS symptom: Facial Expression” value (BL) was 57. For the same substance, the “UWDRS symptom: Finger Taps” value (BL) was 44, the “UWDRS symptom: Finger to Nose” value (BL) was 67 and the “UWDRS symptom: Gait” value (BL) was 59. For the same substance, the “UWDRS symptom: Handwriting” value (BL) was 55, the “UWDRS symptom: Head Tremor” value (BL) was 84 and the “UWDRS symptom: Involuntary Crying” value (BL) was 99. For the same substance, the “UWDRS symptom: Jaw Tremor” value (BL) was 99, the “UWDRS symptom: Leg Ability” value (BL) was 62 and the “UWDRS symptom: Oculomotor” value (BL) was 89. For the same substance, the “UWDRS symptom: Postural Arm Tremor” value (BL) was 49, the “UWDRS symptom: Postural Leg Tremor” value (BL) was 68 and the “UWDRS symptom: Posture” value (BL) was 67. The “UWDRS symptom: Pyramidal Signs” value (BL) was 89, the “UWDRS symptom: RAM of Hands” value (BL) was 48 and the “UWDRS symptom: Rigidity” value (BL) was 58. The “UWDRS symptom: Speech” value (BL) was 44, the “UWDRS symptom: Stereotyped Actions” value (BL) was 93 and the “UWDRS symptom: Tremor at rest” value (BL) was 75. For the same substance, the “UWDRS symptom: Wing-beating tremor” value (BL) was 64, the “UWDRS-III, observed value, Mean (SD)” value (Baseline, N=220) was 15.43 (19.833) and the “UWDRS Part III (0-175), Change from Baseline at 48 weeks, LSM” value (Study 301 Full Analysis Set) was −0.60. For the same substance, the “UWDRS Part III (0-175), Change from Baseline at 48 weeks, Mean” value (Study 301 Full Analysis Set) was −2.20, the “UWDRS Part III functional subscale (0-10), Change from Baseline at 48 weeks, LSM” value (Study 301 Full Analysis Set) was 0.001 and the “UWDRS Part III functional subscale (0-10), Change from Baseline at 48 weeks, Mean” value (Study 301 Full Analysis Set) was −0.147. The “UWDRS Part III-arising from chair (0-4), Change from Baseline at 48 weeks, LSM” value (Study 301 Full Analysis Set) was 0.0, the “UWDRS Part III-arising from chair (0-4), Change from Baseline at 48 weeks, Mean” value (Study 301 Full Analysis Set) was 0.0 and the “UWDRS Part III-gait (0-10), Change from Baseline at 48 weeks, LSM” value (Study 301 Full Analysis Set) was 0.06. The “UWDRS Part III-gait (0-10), Change from Baseline at 48 weeks, Mean” value (Study 301 Full Analysis Set) was −0.06, the “UWDRS Part III-handwriting (0-4), Change from Baseline at 48 weeks, LSM” value (Study 301 Full Analysis Set) was −0.1 and the “UWDRS Part III-handwriting (0-4), Change from Baseline at 48 weeks, Mean” value (Study 301 Full Analysis Set) was −0.1. The “UWDRS Part III-speech (0-4), Change from Baseline at 48 weeks, LSM” value (Study 301 Full Analysis Set) was 0.0, the “UWDRS Part III-speech (0-4), Change from Baseline at 48 weeks, Mean” value (Study 301 Full Analysis Set) was −0.1 and the “UWDRS Part III change from baseline, LSM” value [1] was −2.52. For the same substance, the “UWDRS Part III change from baseline, LSM Diff (TTM vs SoC)” value [1] was −0.53, the “UWDRS Part III change from baseline, Mean” value [2] was −2.64 and the “UWDRS Part III change from baseline, Median” value [2] was −1.00. The “UWDRS Part III, Change from Baseline, Max” value [2] was 31.0, the “UWDRS Part III, Change from Baseline, Min” value [2] was −28.0, and the “UWDRS Part III, Change from Baseline, Q1” value [2] was −6.00,. For the same substance, the “UWDRS Part III, Change from Baseline, Q3” value [2] was 0.00, the “UWDRS-III change from baseline, Mean (SD)” value (“UWDRS-III change … (SD)” below) (TTM exposure 4 weeks, N=215) was −0.72 (6.701) and the “UWDRS Part III (0-175) change from baseline, Mean (SD)” value (from here on “UWDRS Part III (0-175) change … (SD)”) (TTM exposure 4 weeks) was −0.72 (6.701). The “UWDRS Part III Functional Subscale (0-10) change from baseline, Mean (SD)” value (TTM exposure 4 weeks) was −0.072 (0.6009), the “UWDRS-III change … (SD)” value (TTM exposure 12 weeks, N=204) was −1.11 (7.065) and the “UWDRS Part III (0-175) change … (SD)” value (TTM exposure 12 weeks) was −1.11 (7.065). For the same substance, the “UWDRS Part III Functional Subscale (0-10) change from baseline, Mean (SD)” value (TTM exposure 12 weeks) was −0.137 (0.7864), the “UWDRS-III change … (SD)” value (TTM exposure 24 weeks, N=182) was −0.97 (8.447) and the “UWDRS Part III (0-175) change … (SD)” value (TTM exposure 24 weeks) was −0.97 (8.447). For the same substance, the “UWDRS Part III Functional Subscale (0-10) change from baseline, Mean (SD)” value (TTM exposure 24 weeks) was −0.157 (0.9091), the “UWDRS-III change … (SD)” value (TTM exposure 36 weeks, N=156) was −2.38 (8.581) and the “UWDRS Part III (0-175) change … (SD)” value (TTM exposure 36 weeks) was −2.38 (8.581). For the same substance, the “UWDRS Part III Functional Subscale (0-10) change from baseline, Mean (SD)” value (TTM exposure 36 weeks) was −0.286 (0.9929), the “UWDRS-III change … (SD)” value (TTM exposure 48 weeks, N=156) was −3.37 (9.778) and the “UWDRS Part III (0-175) change … (SD)” value (TTM exposure 48 weeks) was −3.37 (9.778). The “UWDRS Part III Functional Subscale (0-10) change from baseline, Mean (SD)” value (TTM exposure 48 weeks) was −0.345 (1.0940), the “UWDRS-III change … (SD)” value (TTM exposure 60 weeks, N=141) was −2.00 (6.40) and the “UWDRS Part III (0-175) change … (SD)” value (TTM exposure 60 weeks) was −2.00 (6.40). For the same substance, the “UWDRS Part III Functional Subscale (0-10) change from baseline, Mean (SD)” value (TTM exposure 60 weeks) was −0.422 (1.0814), the “UWDRS-III change … (SD)” value (TTM exposure 72 weeks, N=125) was −4.93 (11.682) and the “UWDRS Part III (0-175) change … (SD)” value (TTM exposure 72 weeks) was −4.93 (11.682). The “UWDRS Part III Functional Subscale (0-10) change from baseline, Mean (SD)” value (TTM exposure 72 weeks) was −0.494 (1.2826), the “UWDRS-III change … (SD)” value (TTM exposure 96 weeks, N=66) was −7.95 (14.078) and the “UWDRS Part III (0-175) change … (SD)” value (TTM exposure 96 weeks) was −7.95 (14.078). The “UWDRS Part III Functional Subscale (0-10) change from baseline, Mean (SD)” value (TTM exposure 96 weeks) was −0.900 (1.5193), the “UWDRS-III change … (SD)” value (TTM exposure 120 weeks, N=50) was −8.92 (15.045) and the “UWDRS Part III (0-175) change … (SD)” value (TTM exposure 120 weeks) was −8.92 (15.045). For the same substance, the “UWDRS Part III Functional Subscale (0-10) change from baseline, Mean (SD)” value (TTM exposure 120 weeks) was −0.946 (1.7746), the “UWDRS-III change … (SD)” value (TTM exposure 144 weeks, N=42) was −9.78 (15.423) and the “UWDRS Part III (0-175) change … (SD)” value (TTM exposure 144 weeks) was −9.78 (15.423).
